The record followed here is ChEMBL document CHEMBL1128209, “Cyclooxygenase-2 inhibitors. Synthesis and pharmacological activities of 5-methanesulfonamido-1-indanone derivatives” (J Med Chem, 1995).

Molecules are shown by their SMILES. Bounds are passed on as bounds.

A short description of series [1]: Bioavailability in rat. As to conditions: in vivo. It is filed as ADME, organism-based.
Series [2] relates to Rattus norvegicus. Put plainly: In vivo antiinflammatory activity by the Carrageenan-induced rat paw edema assay. It is filed as functional. On the technique in general: The carrageenan paw model is a standard test of acute inflammation.
The target of series [3] is Prostaglandin G/H synthase 1 (Homo sapiens, UniProt P23219). Put plainly: Inhibition of Prostaglandin G/H synthase 1 in human U937 cells. The class given is cell-based, U-937.
Chain of Prostaglandin G/H synthase 1 (P23219 whole entry): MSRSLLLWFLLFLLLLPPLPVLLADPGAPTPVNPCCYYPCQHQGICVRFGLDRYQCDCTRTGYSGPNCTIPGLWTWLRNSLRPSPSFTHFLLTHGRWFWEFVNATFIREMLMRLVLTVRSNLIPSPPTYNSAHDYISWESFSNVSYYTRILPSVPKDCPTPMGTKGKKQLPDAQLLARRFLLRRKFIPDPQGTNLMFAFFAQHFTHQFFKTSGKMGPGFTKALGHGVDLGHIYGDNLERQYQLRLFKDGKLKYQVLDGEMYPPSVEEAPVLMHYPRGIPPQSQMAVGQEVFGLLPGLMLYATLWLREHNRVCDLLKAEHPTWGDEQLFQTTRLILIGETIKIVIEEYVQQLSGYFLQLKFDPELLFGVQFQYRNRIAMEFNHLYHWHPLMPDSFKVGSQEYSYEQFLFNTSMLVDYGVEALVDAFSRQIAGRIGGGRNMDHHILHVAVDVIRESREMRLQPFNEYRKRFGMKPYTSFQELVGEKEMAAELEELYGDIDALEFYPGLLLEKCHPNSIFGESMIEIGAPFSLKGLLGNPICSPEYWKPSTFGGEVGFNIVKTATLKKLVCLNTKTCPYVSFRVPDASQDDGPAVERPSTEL
The nature of series [4]: Plasma clearance rate was determined for the compound in rats. It is filed as ADME, organism-based. As to conditions: rat.
Series [5] can be described thus: Bioavailability in squirrel monkey. It is filed as ADME, organism-based, Saimiri sciureus. As to conditions: in vivo.
Series [6] is described as follows: Plasma clearance rate was determined for the compound in squirrel monkeys. The class given is ADME, organism-based. As to conditions: saimiri.
Series [7] in a line: Plasma terminal half life in squirrel monkeys at a dose of 1 mg/kg administered intravenously. The class given is ADME, organism-based. More on the design: dose 1 mg/kg, route intravenous. As to conditions: saimiri, iv.
For series [8], the system named is Rattus norvegicus. In words: In vivo antiinflammatory activity by the Carrageenan-induced rat paw edema assay. The class given is functional.
For series [9], the target named is T1, Prostaglandin G/H synthase 2 (Homo sapiens, UniProt P35354).
T1 sequence (P35354 whole entry): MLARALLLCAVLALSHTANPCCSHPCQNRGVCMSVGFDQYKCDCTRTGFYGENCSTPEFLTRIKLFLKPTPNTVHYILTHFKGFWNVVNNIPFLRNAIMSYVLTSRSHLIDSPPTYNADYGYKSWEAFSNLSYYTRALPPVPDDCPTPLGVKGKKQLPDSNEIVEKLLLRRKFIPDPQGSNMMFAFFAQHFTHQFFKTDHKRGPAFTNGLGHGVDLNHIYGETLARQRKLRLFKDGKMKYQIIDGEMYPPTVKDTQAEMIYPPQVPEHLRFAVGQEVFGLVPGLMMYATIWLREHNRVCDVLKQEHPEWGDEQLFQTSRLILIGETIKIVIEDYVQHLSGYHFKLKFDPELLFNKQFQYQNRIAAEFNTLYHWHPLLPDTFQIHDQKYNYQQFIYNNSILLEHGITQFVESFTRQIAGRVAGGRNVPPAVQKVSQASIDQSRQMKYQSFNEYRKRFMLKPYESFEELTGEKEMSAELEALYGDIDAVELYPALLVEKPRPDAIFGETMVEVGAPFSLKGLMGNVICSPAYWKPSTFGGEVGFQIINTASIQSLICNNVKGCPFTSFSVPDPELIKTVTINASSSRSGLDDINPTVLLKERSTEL
Put plainly: In vitro inhibition of prostaglandin G/H synthase 2 expressed in human osteosarcoma 143 cells. It is filed as cell-based.

For series [10], the system named is Rattus norvegicus. Put plainly: In vivo antipyretic activity by endotoxin-induced rat pyresis assay. The class given is functional.
Series [11] deals with Rattus norvegicus. In words: In vivo antiinflammatory activity by the Carrageenan-induced rat paw hyperalgesia assay. The class given is functional.
In series [12] the target is T2, Prostaglandin G/H synthase 2 (Homo sapiens) (UniProt P35354).
T2 sequence (whole entry): T1 sequence (P35354 whole entry)
Put plainly: Ability to inhibit the Prostaglandin G/H synthase 2 expressed in human osteosarcoma 143 cells, in vitro. The class given is cell-based. As to conditions: concentration not given here.

Series [13] can be described thus: Plasma Clearance rate was determined for the compound in squirrel monkeys. It is filed as ADME, organism-based. As to conditions: saimiri.
Series [14] can be described thus: Plasma Clearance rate was determined for the compound in rats. As to conditions: rat. It is filed as ADME, organism-based.

For orientation: IC50 means the concentration needed to halve the response being measured. Usually clearance stands for a measure of how efficiently the substance is removed, as volume per time. The half-life is how long it takes for the measured level to halve. With `CS(=O)(=O)Nc1cc2c(cc1Sc1ccc(F)cc1F)C(=O)CC2`, the bioavailability amounted to 90% in series [1] and 145% in [5]. Moreover, the ED30 in the series with Rattus norvegicus [2] was 0.21 MPK. This compound returned an IC50 in [3] greater than 50000 nM. Besides, the clearance in series [4] and in series [6] was 0.5 mL/min in each case. In [7], this compound showed a half-life of 6.9 h.
`CS(=O)(=O)Nc1cc2c(cc1OC1CCCCC1)C(=O)CC2`: the IC50 was greater than 1000 nM in series [3] and 50 nM in [9]. Further, the ED30 with Rattus norvegicus [8] came out at 10 MPK.
`O=C1CCc2cc(NC(=O)C(F)(F)F)c(Sc3ccc(F)cc3F)cc21`: the IC50 in series [9] is greater than 10000 nM.
The ED50 is the midpoint of the dose-response relation. Take `COc1ccc2c(c1)c(CC(=O)O)c(C)n2C(=O)c1ccc(Cl)cc1` [INDOMETHACIN]: the ED50 is 7 mg/kg with Rattus norvegicus [10], 1.47 mg/kg in the series on Rattus norvegicus [11] and 2 mg/kg in the series with Rattus norvegicus [8].
In turn, `CS(=O)(=O)Nc1cc2c(cc1Sc1ccccn1)C(=O)CC2` displayed an IC50 in [9] of 100 nM.
`CS(=O)(=O)Nc1cc2c(cc1Sc1ccccc1F)C(=O)CC2`: the figures for the IC50 in series [3] and in [9] were greater than 50000 nM and 100 nM, respectively.
For the compound `CS(=O)(=O)Nc1cc2c(cc1SC1CCCCC1)C(=O)CC2`, the 50% inhibitory concentration (IC50) in series [3] is greater than 50000 nM; in [9], 50 nM. Besides, in the series with Rattus norvegicus [8], the ED30 is greater than 3 MPK.
By inhibition is commonly meant the share of the control response that was lost under treatment. Take `CS(=O)(=O)Nc1cc2c(cc1[S+]([O-])c1ccc(F)cc1F)C(=O)CC2` (stereo unspecified): in series [12], the inhibition was determined as 27%.
Compound `CS(=O)(=O)Nc1cc2c(cc1Sc1cccs1)C(=O)CC2` showed an IC50 in series [9] of 1000 nM.
As to `CC(C)c1ccc(Sc2cc3c(cc2NS(C)(=O)=O)CCC3=O)cc1`, the IC50 in series [9] is greater than 10000 nM.
On to `Cc1ccc(Sc2cc3c(cc2NS(C)(=O)=O)CCC3=O)cc1`, for which, in [3], the IC50 is greater than 1000 nM. In the series on Rattus norvegicus [8], this compound had an ED30 of 10 MPK.
On to `CS(=O)(=O)Nc1cc2c(cc1Sc1cscn1)C(=O)CC2`, for which, in series [9], the IC50 is greater than 10000 nM.
Regarding `CS(=O)(=O)Nc1cc2c(cc1OC1CCCC1)C(=O)CC2`, the IC50 is greater than 10000 nM in series [3] and greater than 1000 nM in [9].
`CS(=O)(=O)Nc1cc2c(cc1Sc1ccncc1)C(=O)CC2`: the IC50 in series [9] came to 1000 nM.
On to `CS(=O)(=O)Nc1cc2c(cc1Sc1ccc(Br)cc1)C(=O)CC2`, for which the figures for the IC50 in series [3] and in [9] were greater than 10000 nM and 10 nM, respectively. This compound yielded an ED30 in the series with Rattus norvegicus [8] of 3 MPK.
`CS(=O)(=O)Nc1cc2c(cc1Sc1ccc(C(=O)O)cc1)C(=O)CC2`: in series [9], the IC50 was greater than 10000 nM.
On the same count and under the same terms, under `CS(=O)(=O)Nc1cc2c(cc1Oc1ccc(S(C)(=O)=O)cc1)C(=O)CC2` stands greater than 10000 nM.
Take `Cc1ccccc1Sc1cc2c(cc1NS(C)(=O)=O)CCC2=O`: the IC50 in series [3] was greater than 50000 nM.
`CC(=O)Nc1cc2c(cc1Sc1ccc(F)cc1F)C(=O)CC2` gave an IC50 in series [9] greater than 10000 nM.
Take `CS(=O)(=O)Nc1cc2c(cc1OC1CCOCC1)C(=O)CC2`: in series [9], the half-inhibitory concentration (IC50) was greater than 10000 nM.
On the same count and under the same terms, under `CS(=O)(=O)Nc1cc2c(cc1Sc1cccc(F)c1)C(=O)CC2` stands greater than 10000 nM.
For the compound `CS(=O)(=O)Nc1cc2c(cc1Sc1ccc(Cl)cc1Cl)C(=O)CC2`, the 50% inhibitory concentration (IC50) in series [3] is 40000 nM; in series [9], 10 nM. The ED30 in the series with Rattus norvegicus [8] is given as 0.1 MPK.
For `CCc1ccc(Sc2cc3c(cc2NS(C)(=O)=O)CCC3=O)cc1`, half-maximal inhibition in [9] (IC50) required 100 nM.
`CCS(=O)(=O)Nc1cc2c(cc1Sc1ccc(F)cc1F)C(=O)CC2`: the IC50 in series [3] and in [9] was greater than 10000 nM in each case.
For the compound `CS(=O)(=O)Nc1cc2c(cc1Cc1ccc(F)cc1F)C(=O)CC2`, the figures for the IC50 in [3] and in [9] were less than 1000 nM and greater than 200 nM, respectively.
In turn, `CS(=O)(=O)Nc1cc2c(cc1Sc1ccsc1)C(=O)CC2` gave an inhibition in [12] of 46%.
`CS(=O)(=O)Nc1cc2c(cc1Nc1ccc(F)cc1F)C(=O)CC2` registered an IC50 in series [9] of 1000 nM.
Same read-out and setting: to `O=C1CCc2cc(NS(=O)(=O)C(F)(F)F)c(Sc3ccc(F)cc3F)cc21` belongs 40 nM.
For `CS(=O)(=O)Nc1cc2c(cc1Sc1ccc(F)cc1)C(=O)CC2`, the IC50 in [3] is greater than 50000 nM; in series [9], 1000 nM.
In turn, `CS(=O)(=O)Nc1cc2c(cc1Sc1cccnc1)C(=O)CC2` displayed an inhibition in [12] of 30%.
Turning to `CS(=O)(=O)Nc1cc2c(cc1S(=O)(=O)c1ccc(F)cc1F)C(=O)CC2`, in series [9], the IC50 was greater than 10000 nM.
In the case of `COc1ccc(Sc2cc3c(cc2NS(C)(=O)=O)CCC3=O)cc1`, in series [9], 100 nM corresponded to half-maximal inhibition (IC50).
In the case of `CC(C)(C)c1ccc(Sc2cc3c(cc2NS(C)(=O)=O)CCC3=O)cc1`, in series [9], the IC50 is greater than 10000 nM.
For the compound `CS(=O)(=O)Nc1cc2c(cc1Oc1ccc(F)cc1F)C(=O)CC2` [FLOSULIDE], the results for the bioavailability in series [1] and in series [5] were 92% and 63%, respectively. Besides, the clearance in series [13] and in [14] was 1.2 mL/min in each case. The same compound returned an IC50 in series [3] greater than 50000 nM. Also, the ED30 with Rattus norvegicus [8] was found to be 0.6 MPK. The compound also had a half-life in [7] of 4.9 h.
Regarding `COc1ccccc1Sc1cc2c(cc1NS(C)(=O)=O)CCC2=O`, in series [9], the IC50 was greater than 10000 nM.
On the same count and under the same terms, to `CS(=O)(=O)Nc1cc2c(cc1Sc1cncs1)C(=O)CC2` belongs greater than 10000 nM.
On to `CS(=O)(=O)Nc1cc2c(cc1Sc1c(F)cccc1F)C(=O)CC2`, for which the results for the IC50 in series [3] and in [9] were greater than 50000 nM and 100 nM, respectively.
Turning to `CSc1ccc(Oc2cc3c(cc2NS(C)(=O)=O)CCC3=O)cc1`, the IC50 in series [9] is 100 nM.
Same read-out and setting: under `Cc1cccc(Sc2cc3c(cc2NS(C)(=O)=O)CCC3=O)c1` stands greater than 10000 nM.
Regarding `CS(=O)(=O)Nc1cc2c(cc1Sc1nccs1)C(=O)CC2`, the IC50 in series [3] was greater than 10000 nM; in [9], 100 nM. Besides, the ED30 in the series on Rattus norvegicus [8] is listed as 0.85 MPK.
